How the values were obtained:
Assay type in all cases: in vivo
[1] = test system: Spodoptera littoralis (Egyptian Cotton Leaf Worm); experiment: Example B1: Activity against Spodoptera littoralis, sprayed cotton leaf discs; conditions: foliar, 72 h, application rate 200 ppm, L1 larvae, 3 days after infestation, read-out: control in at least one of the three categories (mortality, anti-feedancy or growth inhibition)
Procedure: Example B1: Activity Against Spodoptera littoralis (Egyptian Cotton Leaf Worm)
Cotton leaf discs were placed on agar in 24-well microtiter plates and sprayed with aqueous test solutions prepared from 10′000 ppm DMSO stock solutions. After drying the leaf discs were infested with five L1 larvae. The samples were assessed for mortality, anti-feedant effect, and growth inhibition in comparison to untreated samples 3 days after infestation. Control of Spodoptera littoralis by a test sample is when at least one of mortality, anti-feedant effect, and growth inhibition is higher than the untreated sample.

[2] = test system: Diabrotica Balteata (Corn Root Worm); experiment: Example B4: Activity against Diabrotica balteata, sprayed maize sprouts; conditions: 96 h, application rate 200 ppm, L2 larvae, 4 days after infestation, read-out: effect in at least one of the two categories (mortality or growth inhibition)
Procedure: Example B4: Activity Against Diabrotica Balteata (Corn Root Worm)
Maize sprouts, placed on an agar layer in 24-well microtiter plates were treated with aqueous test solutions prepared from 10′000 ppm DMSO stock solutions by spraying. After drying, the plates were infested with L2 larvae (6 to 10 per well). The samples were assessed for mortality and growth inhibition in comparison to untreated samples 4 days after infestation.

[3] = test system: Plutella xylostella (Diamond Back Moth); experiment: Example B3: Activity against Plutella xylostella, artificial diet; conditions: 120 h, application rate 200 ppm, L2 larvae, 5 days after infestation, read-out: effect in at least one of the two categories (mortality or growth inhibition)
Procedure: Example B3: Activity Against Plutella xylostella (Diamond Back Moth)
24-well microtiter plates with artificial diet were treated with aqueous test solutions prepared from 10′000 ppm DMSO stock solutions by pipetting. After drying, the plates were infested with L2 larvae (10 to 15 per well). The samples were assessed for mortality and growth inhibition in comparison to untreated samples 5 days after infestation.

[4] = test system: Euschistus heros (Neotropical Brown Stink Bug); experiment: Example B7: Activity against Euschistus heros, sprayed soybean leaf; conditions: 120 h, application rate 200 ppm, N-2 nymphs, 5 days after infestation
Procedure: Example B7: Activity Against Euschistus heros (Neotropical Brown Stink Bug)
Soybean leaf on agar in 24-well microtiter plates were sprayed with aqueous test solutions prepared from 10′000 ppm DMSO stock solutions. After drying the leaf were infested with N-2 nymphs. The samples were assessed for mortality 5 days after infestation.

[5] = test system: Myzus persicae (Green Peach Aphid); experiment: Example B8: Activity against Myzus persicae, sprayed sunflower leaf discs; conditions: foliar, 144 h, application rate 200 ppm, aphid population of mixed ages, 6 days after infestation
Procedure: Example B8: Activity Against Myzus persicae (Green Peach Aphid)
Sunflower leaf discs were placed on agar in a 24-well microtiter plate and sprayed with aqueous test solutions prepared from 10′000 ppm DMSO stock solutions. After drying, the leaf discs were infested with an aphid population of mixed ages. The samples were assessed for mortality 6 days after infestation.

CCS(=O)(=O)c1cc(-c2cncc(C(F)(F)F)c2)cnc1C(=O)N(C)c1nnc(C(F)(F)F)s1 [Compound P55]
≥ 80%: percent control (mortality, anti-feedant effect or growth inhibition) at 200 ppm [1] | percent effect (mortality or growth inhibition) at 200 ppm [2]

CCS(=O)(=O)c1cc(-c2ccc(Cl)c(Cl)n2)cnc1C(=O)N(C)c1nnc(C(F)(F)F)s1 [Compound P46]
≥ 80%: percent control (mortality, anti-feedant effect or growth inhibition) at 200 ppm [1] | percent effect (mortality or growth inhibition) at 200 ppm [3] | percent effect (mortality or growth inhibition) at 200 ppm [2]

CCSc1cc(-n2ccc(C(F)(F)F)n2)cnc1C(=O)N(C)c1nnc(C(F)(F)F)s1 [Compound P16, 3-ethylsulfanyl-N-methyl-5-[3-(trifluoromethyl)pyrazol-1-yl]-N-[5-(trifluoromethyl)-1,3,4-thiadiazol-2-yl]pyridine-2-carboxamide]
≥ 80%: percent control (mortality, anti-feedant effect or growth inhibition) at 200 ppm [1] | percent effect (mortality or growth inhibition) at 200 ppm [2]

CCS(=O)(=O)c1cc(-c2ccc(C(F)(F)F)cc2)cnc1C(=O)N(C)c1nnc(C(F)(F)C(F)(F)F)s1 [Compound P11]
≥ 80%: mortality at 200 ppm [4] | percent control (mortality, anti-feedant effect or growth inhibition) at 200 ppm [1] | percent effect (mortality or growth inhibition) at 200 ppm [3] | percent effect (mortality or growth inhibition) at 200 ppm [2]

CCS(=O)(=O)c1cc(-c2cccc(C(F)(F)F)n2)cnc1C(=O)N(C)c1nnc(C(F)(F)F)s1 [Compound P45]
≥ 80%: mortality at 200 ppm [5] | percent control (mortality, anti-feedant effect or growth inhibition) at 200 ppm [1] | percent effect (mortality or growth inhibition) at 200 ppm [3] | percent effect (mortality or growth inhibition) at 200 ppm [2]

CCS(=O)(=O)c1cc(-c2ccc(C(F)(F)F)cc2)cnc1C(=O)Nc1nnc(C(F)(F)C(F)(F)F)s1 [Compound P10]
≥ 80%: percent effect (mortality or growth inhibition) at 200 ppm [2]

CCS(=O)(=O)c1ccc(-c2ccc(C(F)(F)F)cc2)nc1C(=O)N(C)c1nnc(C(F)(F)F)s1 [Compound P21, 3-ethylsulfonyl-N-methyl-6-[4-(trifluoromethyl)phenyl]-N-[5-(trifluoromethyl)-1,3,4-thiadiazol-2-yl]pyridine-2-carboxamide]
≥ 80%: percent control (mortality, anti-feedant effect or growth inhibition) at 200 ppm [1] | percent effect (mortality or growth inhibition) at 200 ppm [3] | percent effect (mortality or growth inhibition) at 200 ppm [2]

CCS(=O)(=O)c1cc(-c2ccc(OC(F)(F)F)cc2)cnc1C(=O)N(C)c1nnc(C(F)(F)F)s1 [Compound P22]
≥ 80%: mortality at 200 ppm [5] | mortality at 200 ppm [4] | percent control (mortality, anti-feedant effect or growth inhibition) at 200 ppm [1] | percent effect (mortality or growth inhibition) at 200 ppm [3] | percent effect (mortality or growth inhibition) at 200 ppm [2]

CCS(=O)(=O)c1cc(-c2cc(Cl)c(F)c(Cl)c2)cnc1C(=O)N(C)c1nnc(C(F)(F)F)s1 [Compound P27]
≥ 80%: percent control (mortality, anti-feedant effect or growth inhibition) at 200 ppm [1] | percent effect (mortality or growth inhibition) at 200 ppm [3] | percent effect (mortality or growth inhibition) at 200 ppm [2]

CCS(=O)(=O)c1cc(-c2ccnc(Cl)c2)cnc1C(=O)N(C)c1nnc(C(F)(F)F)s1 [Compound P57]
≥ 80%: mortality at 200 ppm [5] | mortality at 200 ppm [4] | percent control (mortality, anti-feedant effect or growth inhibition) at 200 ppm [1] | percent effect (mortality or growth inhibition) at 200 ppm [3] | percent effect (mortality or growth inhibition) at 200 ppm [2]

CCS(=O)(=O)c1cc(-c2ccc(Cl)cc2)c[n+]([O-])c1C(=O)N(C)c1nnc(C(F)(F)F)s1 [Compound P19, 5-(4-chlorophenyl)-3-ethylsulfonyl-N-methyl-1-oxido-N-[5-(trifluoromethyl)-1,3,4-thiadiazol-2-yl]pyridin-1-ium-2-carboxamide]
≥ 80%: mortality at 200 ppm [4] | percent control (mortality, anti-feedant effect or growth inhibition) at 200 ppm [1] | percent effect (mortality or growth inhibition) at 200 ppm [3] | percent effect (mortality or growth inhibition) at 200 ppm [2]

CCS(=O)(=O)c1cc(-c2cc(Cl)cc(Cl)c2)cnc1C(=O)N(C)c1nnc(C(F)(F)F)s1 [Compound P24]
≥ 80%: percent control (mortality, anti-feedant effect or growth inhibition) at 200 ppm [1] | percent effect (mortality or growth inhibition) at 200 ppm [3] | percent effect (mortality or growth inhibition) at 200 ppm [2]

CCS(=O)(=O)c1cc(-c2ncc(C#N)cn2)cnc1C(=O)N(C)c1nnc(C(F)(F)F)s1 [Compound P63]
≥ 80%: mortality at 200 ppm [4] | percent control (mortality, anti-feedant effect or growth inhibition) at 200 ppm [1] | percent effect (mortality or growth inhibition) at 200 ppm [3] | percent effect (mortality or growth inhibition) at 200 ppm [2]

CCS(=O)(=O)c1cc(-c2ccc(C#N)cn2)cnc1C(=O)N(C)c1nnc(C(F)(F)F)s1 [Compound P64, 5-(5-cyano-2-pyridyl)-3-ethylsulfonyl-N-methyl-N-[5-(trifluoromethyl)-1,3,4-thiadiazol-2-yl]pyridine-2-carboxamide]
≥ 80%: mortality at 200 ppm [5] | mortality at 200 ppm [4] | percent control (mortality, anti-feedant effect or growth inhibition) at 200 ppm [1] | percent effect (mortality or growth inhibition) at 200 ppm [3] | percent effect (mortality or growth inhibition) at 200 ppm [2]

CCS(=O)(=O)c1cc(C2(C#N)CC2)cnc1C(=O)N(C)c1nnc(C(F)(F)F)s1 [Compound P18]
≥ 80%: mortality at 200 ppm [5] | percent control (mortality, anti-feedant effect or growth inhibition) at 200 ppm [1] | percent effect (mortality or growth inhibition) at 200 ppm [3] | percent effect (mortality or growth inhibition) at 200 ppm [2]

CCS(=O)(=O)c1cc(-c2cccc(C#N)c2)cnc1C(=O)N(C)c1nnc(C(F)(F)F)s1 [Compound P23]
≥ 80%: percent control (mortality, anti-feedant effect or growth inhibition) at 200 ppm [1] | percent effect (mortality or growth inhibition) at 200 ppm [3] | percent effect (mortality or growth inhibition) at 200 ppm [2]

CCS(=O)(=O)c1cc(-n2ccc(C(F)(F)F)n2)cnc1C(=O)N(C)c1nnc(C(F)(F)F)s1 [Compound P17, 3-ethylsulfonyl-N-methyl-5-[3-(trifluoromethyl)pyrazol-1-yl]-N-[5-(trifluoromethyl)-1,3,4-thiadiazol-2-yl]pyridine-2-carboxamide]
≥ 80%: mortality at 200 ppm [4] | percent control (mortality, anti-feedant effect or growth inhibition) at 200 ppm [1] | percent effect (mortality or growth inhibition) at 200 ppm [3] | percent effect (mortality or growth inhibition) at 200 ppm [2]

CCSc1cc(-c2ccc(Cl)cc2)cnc1C(=O)N(C)c1nnc(C(F)(F)F)s1 [Compound P1, 5-(4-chlorophenyl)-3-ethylsulfanyl-N-methyl-N-[5-(trifluoromethyl)-1,3,4-thiadiazol-2-yl]pyridine-2-carboxamide]
≥ 80%: mortality at 200 ppm [4] | percent control (mortality, anti-feedant effect or growth inhibition) at 200 ppm [1] | percent effect (mortality or growth inhibition) at 200 ppm [3] | percent effect (mortality or growth inhibition) at 200 ppm [2]

CCS(=O)(=O)c1ccc(-c2cnc(C(=O)N(C)c3nnc(C(F)(F)F)s3)c(S(=O)(=O)CC)c2)cc1 [Compound P3]
≥ 80%: percent control (mortality, anti-feedant effect or growth inhibition) at 200 ppm [1] | percent effect (mortality or growth inhibition) at 200 ppm [3] | percent effect (mortality or growth inhibition) at 200 ppm [2]

CCS(=O)(=O)c1cc(-c2ccc(Cl)cc2Cl)cnc1C(=O)N(C)c1nnc(C(F)(F)F)s1 [Compound P34]
≥ 80%: mortality at 200 ppm [4] | percent control (mortality, anti-feedant effect or growth inhibition) at 200 ppm [1] | percent effect (mortality or growth inhibition) at 200 ppm [3] | percent effect (mortality or growth inhibition) at 200 ppm [2]

CCS(=O)(=O)c1cc(-c2ccc(C(F)(F)F)cn2)cnc1C(=O)N(C)c1nnc(C(F)(F)F)s1 [Compound P53]
≥ 80%: percent control (mortality, anti-feedant effect or growth inhibition) at 200 ppm [1] | percent effect (mortality or growth inhibition) at 200 ppm [3] | percent effect (mortality or growth inhibition) at 200 ppm [2]

CCS(=O)(=O)c1cc(-c2ccc(Cl)cc2)cnc1C(=O)Nc1nnc(C(F)(F)C(F)(F)F)s1 [Compound P13]
≥ 80%: percent effect (mortality or growth inhibition) at 200 ppm [3] | percent effect (mortality or growth inhibition) at 200 ppm [2]

CCS(=O)(=O)c1cc(-n2ccc(C(F)(F)F)n2)cnc1C(=O)Nc1nnc(C(F)(F)C(F)(F)F)s1 [Compound P7]
≥ 80%: percent effect (mortality or growth inhibition) at 200 ppm [2]

CCS(=O)(=O)c1cc(-n2ccc(C(F)(F)F)n2)cnc1C(=O)N(C)c1nnc(C(F)(F)C(F)(F)F)s1 [Compound P15]
≥ 80%: mortality at 200 ppm [4] | percent control (mortality, anti-feedant effect or growth inhibition) at 200 ppm [1] | percent effect (mortality or growth inhibition) at 200 ppm [3] | percent effect (mortality or growth inhibition) at 200 ppm [2]

CCS(=O)(=O)c1cc(-c2cccc(C#N)n2)cnc1C(=O)N(C)c1nnc(C(F)(F)F)s1 [Compound P50]
≥ 80%: percent control (mortality, anti-feedant effect or growth inhibition) at 200 ppm [1] | percent effect (mortality or growth inhibition) at 200 ppm [3] | percent effect (mortality or growth inhibition) at 200 ppm [2]

CCS(=O)(=O)c1cc(-c2ccc(-c3ccc(Cl)cc3)cc2)cnc1C(=O)N(C)c1nnc(C(F)(F)F)s1 [Compound P9]
≥ 80%: percent control (mortality, anti-feedant effect or growth inhibition) at 200 ppm [1] | percent effect (mortality or growth inhibition) at 200 ppm [3] | percent effect (mortality or growth inhibition) at 200 ppm [2]

From patent US10590123B2, “Pesticidally active amide heterocyclic derivatives with sulphur containing substituents” (SYNGENTA PARTICIPATIONS AG, priority 2014, dated 2020)
